Source: patent US8592456B2 (4SC Discovery GmbH, priority 2011, dated 2013)
Read-outs that look alike come from different tables or passages of the source.

Legend:
Format in all cases: cell-based
[1] = system: PBMC (T cell proliferation); assay: T cell proliferation assay, PHA-stimulated human PBMC (BrdU ELISA); settings: Homo sapiens, 48 h
Outline: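 Healthy-donor human PBMC, Ficoll-isolated, seeded 1×10^5 cells/well in RPMI1640 with 10% dialyzed FCS, stimulated with 2 μg/ml PHA alongside test compound. Proliferation read after 48 hours by BrdU ELISA.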

IL-17FF = IL-17FF production by PHA-stimulated human PBMC (IL-17F ELISA)
Protocol: (§1) Analysis of Proliferation of and Cytokine Production by Human PBMC Stimulated with PHA
(§2) Peripheral blood mononuclear cells (PBMC) from healthy human donors were purified using Accuspin™ System-Histopaque-1077 (Sigma) according to the protocol recommended by the manufacturer. Purified PBMC were then washed twice with phosphate-buffered saline (PBS) and resuspended in RPMI1640 culture medium supplemented with 10% dialyzed heat inactivated fetal calf serum, 1.5 mM L-glutamine, 100 U penicillin/ml, and […] (all from PAN Biotech, Aidenbach, Germany). For stimulation, PBMC were seeded at 1×10^5 cells/well, activated with 2 μg/ml phytohaemagglutinin (PHA, Sigma) and incubated with the test compounds for 48 hours. IL-17A, IL-17F and INF-γ were then determined in the culture supernatant using a Luminex BioPlex system, following the manufacturer's instructions (BioRad, Munich, Germany). For screening, compounds were used at 10, 1, 0.1 and 0.01 μM. To determine the IC50, compounds were titrated semilogarithmically.
(§3) Cytokines were determined in the aforementioned culture supernatant using the following methods: IL-17AA/AF was measured using the Luminex BioPlex system (BioRad, Munich, Germany); IL-17AA using the human homodimer IL-17A ELISA Ready Set Go Kit from eBioscience (Frankfurt, Germany); IL-17FF using the human IL-17F ELI-Pair from Hölzel DiagnosticaGmBH (Köln, Germany); and IFN-γ using the OptElA human IFN-g ELISA from BD Bioscience (Heidelberg, Germany), all following the manufacturer's instructions.

IFNγ = assay: IFN-γ production by PHA-stimulated human PBMC (IFN-g ELISA); settings: 48 h
Protocol: as §1
as §2, with “For stimulation, PBMC were seeded at 1×10^5 cells/well, activated with 2 μg/ml phytohaemagglutinin (PHA, Sigma) and incubated with the test compounds for 48 hours.” left out, “For screening, compounds were used at 10, 1, 0.1 and 0.01 μM. To determine the IC50, compounds were titrated semilogarithmically.” left out
as §3

Compound Cc1csc(-c2c(-c3c(F)cccc3Cl)noc2-c2cnn(-c3cccc(Cl)c3)c2C(F)(F)F)n1 [Example I-4] has an IC50 ([1]; read-out: IC50 (Tcell proliferation)) of under 0.01 µM, an IC50 (IL-17FF; Homo sapiens, PBMC, 48 h, read-out: IC50 (IL-17FF)) of under 0.01 µM and an IC50 (IFNγ; read-out: IC50 (IFNγ)) of under 0.01 µM.
Work on O=C(O)c1c(-c2c(F)cccc2Cl)noc1-c1cnn(-c2cccc(Cl)c2)c1C(F)(F)F [Example B-18, 3-(2-chloro-6-fluorophenyl)-5-(1-(3-chlorophenyl)-5-(trifluoromethyl)-1H-pyrazol-4-yl)isoxazole-4-carboxylic acid] yielded an IC50 (IL-17FF; human PBMC, 2 μg/ml PHA, 48 hours, read-out: B: IC50 (IL-17FF)) of 1 to 10 µM.
For CCOC(=O)c1c(-c2c(F)cccc2Cl)noc1-c1cnn(-c2ccccc2Cl)c1C(F)(F)F [Example B-33, ethyl 3-(2-chloro-6-fluorophenyl)-5-(1-(2-chlorophenyl)-5-(trifluoromethyl)-1H-pyrazol-4-yl)isoxazole-4-carboxylate], the IC50 ([1]; read-out: D: IC50 (Tcell proliferation)) was 0.1 to 1 µM, the IC50 (IL-17FF; Homo sapiens, PBMC, 48 h, read-out: B: IC50 (IL-17FF)) was 0.1 to 1 µM and the IC50 (IFNγ; read-out: C: IC50 (IFNγ)) was 0.1 to 1 µM.
